Measurements: US20230040357A1, “PHARMACEUTICAL COMPOSITION AND HEALTH FUNCTIONAL FOOD FOR PREVENTING, AMELIORATING OR TREATING DIABETES CONTAINING WASP EXTRACT AS ACTIVE INGREDIENT” (Andong National University Industry-Academic cooperation …, priority 2021, published 2023)
Several values for one entry are separate records, joined by “and”; a condition that tells them apart may be missing. Equal values may be shown once.

Test system: human erythrocytes
Assay: human erythrocyte hemolytic activity
Type: cell-based
Conditions: 37° C., 30 minutes
Method: In order to evaluate the acute toxicities of the wasp extracts, the human erythrocyte hemolytic activities of the wasp extracts were evaluated, and the results of the evaluation are shown in Table 3 below. At this time, the hemolytic activity was evaluated according to a previous report (Son Ho-Yong et al., 2014, Korean J. Microbiol. Biotechnol. 42: 285-292). Briefly, 100 μl of human erythrocytes were washed three times with PBS and added to a 96-well microplate, and 100 μl of a sample solution at various concentrations was added thereto and then allowed to react at 37° C. for 30 minutes. Thereafter, the reaction solution was centrifuged at 1,500 rpm for 10 minutes, and 100 μl of the supernatant was transferred to a fresh microtiter plate, and then the degree of hemoglobin leakage following hemolysis was measured at 414 nm. DMSO (2%) was used as a solvent control for the sample, and Triton X-100 (1 mg/ml) was used as an experimental control for hemolysis of erythrocytes. Hemolytic activity was calculated using the following equation.
(%) Hemolysis=[(Abs. S−Abs. C)/(Abs. T−Abs. C)]×100
Abs. S: absorbance of sample-added group
Abs. C: absorbance of DMSO-added group
Abs. T: absorbance of Triton X-100-added group

Compound | Human erythrocyte hemolytic activity (0.0032 mg/ml) | Human erythrocyte hemolytic activity (0.0063 mg/ml) | Human erythrocyte hemolytic activity (0.0125 mg/ml) | Human erythrocyte hemolytic activity (0.05 mg/ml) | Human erythrocyte hemolytic activity (0.1 mg/ml) | Human erythrocyte hemolytic activity (1.0 mg/ml)
C[C@@H]1[C@H](O)[C@@H](C)/C=C/C=C/C=C/C=C/C=C/C=C/C=C/[C@H](O[C@@H]2O[C@H](C)[C@@H](O)[C@H](N)[C@@H]2O)C[C@@H]2O[C@](O)(C[C@@H](O)C[C@@H](O)[C@H](O)CC[C@@H](O)C[C@@H](O)CC(=O)O[C@H]1C)C[C@H](O)[C@H]2C(=O)O [Amphotericin B] | 6.54 ± 0.9% | 21.6 ± 3.7% | 48.2 ± 5.9% | 72.4 ± 5.2% | 95.8 ± 0.3% | –
Triton X-100 | – | – | – | – | – | 100% and 100.0 ± 0.1%
